Measured values taken from patent US20200163984A1, “USE OF ISOVALERYL SPIRAMYCIN I, II AND/OR III IN MANUFACTURING MEDICAMENT FOR TREATING AND/OR PREVENTING TUMOR, AND MEDICAMENT” (SHENYANG FUYANG PHARMACEUTICAL TECHNOLOGY CO., LTD., priority 2017, published 2020).
Like-named read-outs stand apart in the source and are kept apart here.

Legend:
[1] = test system: transplanted tumor of human breast cancer cell MCF-7; assay: MCF-7 transplanted tumor in nude mice
Description: (§1) Then cell concentration was adjusted to 1×10^7/ml with matrigel, then each nude mouse was inoculated subcutaneously with 0.2 ml of cells at its right armpit and recorded as the first day of inoculation. When the tumor grows to be greater than or equal to 100 mm^3, the mice were randomly divided into 11 groups with 6 mice in each group: a model group, a cyclophosphamide group, isovaleryl spiramycin I groups with doses of 25, 50 and 100 mg/kg, isovaleryl spiramycin II groups with doses of 25, 50 and 100 mg/kg, and isovaleryl spiramycin III groups with doses of 25, 50 and 100 mg/kg. Each group was continuously administered intragastrically for 30 days with a dose of 20 ml/kg. The mice were sacrificed the next day after drug withdrawal and the indicators were tested. The long diameter and short diameter of the tumor, and the body weight of each mouse were recorded every 3 days from drug administration to nude mouse sacrifice.
(§2) The body weight of the nude mice and the long diameter (a) and short diameter (b) of the transplanted tumor were measured every 3 days, and the tumor volume (v), relative tumor volume (RTV) and relative tumor proliferation rate (T/C) are calculated respectively according to the following formulas, wherein V=a×b^2/2; RTV=V/V0 (V0 is the tumor volume before administration, V is the tumor volume before sacrifice), and T/C (%)=treatment group RTV/model control group RTV×100%.
(§3) Each mouse was weighed and sacrificed. After the tumor was completely stripped off from the body of the mouse, the non-tumor tissues such as blood stains and fat were removed to weigh the tumor and calculate the tumor growth inhibition rate. The average tumor weight of each group of mice is used as an indicator of efficacy. Tumor growth inhibition rate (%)=(1−the average tumor weight of the treatment group/the average tumor weight of the model group)×100%.

[2] = test system: transplanted tumor of human pancreatic cancer cell PANC-1; assay: PANC-1 transplanted tumor in nude mice; conditions: for Tumor Volume (mm3) (d 1): d1
Description: as §1, §2, §3

[3] = test system: transplanted tumor of human non-small cell lung cancer cell H1299
Description: as §1, with “group:” for “group: a model group, a cyclophosphamide group,”
as §2, §3

[4] = test system: transplanted tumor of mouse Lewis lung cancer; assay: Transplanted tumor of mouse Lewis lung cancer; conditions: for Tumor Volume (mm3) (d 1) / Tumor Volume (mm3) (d30) / Relative Tumor Proliferation Rate (T/C) / Relative Tumor Volume (RTV): title prints KM mouse H22 cells; for Tumor Volume (mm3) (d30): d 30; for Body Weight (g) (d1) / Body Weight (g) (d 15): mouse, in vivo
Description: Lewis lung cancer cells were cultured in a RPMI 1640 culture medium containing 10% fetal bovine serum at 37° C. in a 5% CO2 incubator. The cells in the logarithmic growth phase were subjected to trypsinization with 0.25% trypsin, then the cells were collected to be centrifugated to remove the obtained supernatant, then were washed twice with sterile normal saline. […] The Lewis cells were adjusted to 1×10^7/mL in concentration and stored in ice water. 75% ethanol was used to disinfect the skin under the right armpits of the mice, and each C57BL/6 mouse was soon inoculated subcutaneously with 0.2 ml of the cells at its right armpit.
In the Lewis lung cancer model, the mice inoculated with the tumor were randomly divided into groups with 10 mice in each group the next day of inoculation. The groups included: a model control group, a positive drug cyclophosphamide control group (CTX, 30 mg/kg), isovaleryl spiramycin I groups with doses of 13, 26 and 52 mg/kg; isovaleryl spiramycin II groups with doses of 13, 26 and 52 mg/kg; isovaleryl spiramycin III groups with doses of 13, 26 and 52 mg/kg. Each group was continuously administered intragastrically for 15 days with a dose of 20 ml/kg.
The tumor-bearing mice were weighed and sacrificed the next day after the last administration. The subcutaneous tumors were dissected and weighed. The average tumor weight of each group is calculated, and the tumor inhibition rate is calculated.
Tumor inhibition rate=(1−T/C)×100%
T: average tumor weight of the drug-administered group; C: average tumor weight of the blank control group.

[5] = MCF-7, 25 mg/kg (low dose) i.g. 30 days
[6] = MCF-7, 50 mg/kg (medium dose) i.g. 30 days
[7] = MCF-7, 100 mg/kg (high dose) i.g. 30 days
[8] = PANC-1, 12.5 mg/kg (low dose) i.g. 30 days
[9] = PANC-1, 25 mg/kg (medium dose) i.g. 30 days
[10] = PANC-1, 50 mg/kg (high dose) i.g. 30 days
[11] = H1299, 25 mg/kg (low dose) i.g. 30 days
[12] = H1299, 50 mg/kg (medium dose) i.g. 30 days
[13] = H1299, 100 mg/kg (high dose) i.g. 30 days

## COC1C(OC(C)=O)CC(=O)OC(C)CC=CC=CC(OC2CCC(N(C)C)C(C)O2)C(C)CC(CC=O)C1OC1OC(C)C(OC2CC(C)(O)C(OC(=O)CC(C)C)C(C)O2)C(N(C)C)C1O (centres unmarked) [Isovaleryl spiramycin II, isovaleryl spiramycin II]
[1]; [5]
  Inhibition Rate (tumor growth inhibition rate): 20.55%
  Relative Tumor Proliferation Rate (T/C): 79.23%
  Relative Tumor Volume (RTV): 13.87 ± 1.53
  Tumor Volume (d 1): 104.64 ± 10.69 mm3
  Tumor Volume (d 30): 1450.36 ± 218.20 mm3
  Tumor Weight: 2.16 ± 0.51 g
[1]; [6]
  Inhibition Rate (tumor growth inhibition rate): 41.72%
  Relative Tumor Proliferation Rate (T/C): 60.58%
  Relative Tumor Volume (RTV): 10.60 ± 1.10
  Tumor Volume (d 1): 105.81 ± 11.20 mm3
  Tumor Volume (d 30): 1113.42 ± 71.14 mm3
  Tumor Weight: 1.58 ± 0.51 g
[1]; [7]
  Inhibition Rate (tumor growth inhibition rate): 56.81%
  Relative Tumor Proliferation Rate (T/C): 44.45%
  Relative Tumor Volume (RTV): 7.78 ± 1.71
  Tumor Volume (d 1): 119.69 ± 14.63 mm3
  Tumor Volume (d 30): 914.69 ± 130.26 mm3
  Tumor Weight: 1.17 ± 0.47 g
[1]; MCF-7, 100 mg/kg (high dose) i.g. 30 days, listed as isovaleryl spiramycin II
  Relative Tumor Proliferation Rate (T/C): 44.44%
[1]; MCF-7, low, medium and high doses, P<0.05
  tumor volume and relative tumor volume compared with the model group: significantly lower
[1]; mouse, in vivo
  mouse weight compared with the model group: no significant changes
[2]; [8]
  Inhibition Rate (tumor growth inhibition rate): 20.55%
  Tumor Weight: 2.16 ± 0.51 g
[2]; [9]
  Inhibition Rate (tumor growth inhibition rate): 41.72%
  Tumor Weight: 1.58 ± 0.51 g
[2]; [10]
  Inhibition Rate (tumor growth inhibition rate): 56.81%
  Tumor Weight: 1.17 ± 0.47 g
[2]; PANC-1, high dose i.g. 30 days
  Relative Tumor Proliferation Rate (T/C): 44.44%
[2]; PANC-1, low dose i.g. 30 days
  Relative Tumor Proliferation Rate (T/C): 79.23%
[2]; PANC-1, low, medium and high doses, P<0.05
  tumor volume and relative tumor volume compared with the model group: significantly lower
[2]; PANC-1, medium dose i.g. 30 days
  Relative Tumor Proliferation Rate (T/C): 60.58%
[2]; PANC-1 nude mice, 12.5 mg/kg
  Relative Tumor Proliferation Rate (T/C): 79.23%
  Relative Tumor Volume (RTV): 13.87 ± 1.53
  Tumor Volume (mm3) (d 1): 104.64 ± 10.69 mm3
  Tumor Volume (mm3) (d30): 1450.36 ± 218.20 mm3
[2]; PANC-1 nude mice, 25 mg/kg
  Relative Tumor Proliferation Rate (T/C): 60.58%
  Relative Tumor Volume (RTV): 10.60 ± 1.10
  Tumor Volume (mm3) (d 1): 105.81 ± 11.20 mm3
  Tumor Volume (mm3) (d30): 1113.42 ± 71.14 mm3
[2]; PANC-1 nude mice, 50 mg/kg
  Relative Tumor Proliferation Rate (T/C): 44.45%
  Relative Tumor Volume (RTV): 7.78 ± 1.71
  Tumor Volume (mm3) (d 1): 119.69 ± 14.63 mm3
  Tumor Volume (mm3) (d30): 914.69 ± 130.26 mm3
[2]; mouse, in vivo
  mouse weight compared with the model group: no significant changes
[3]; [11]
  Inhibition Rate (tumor growth inhibition rate): 17.32%
  Relative Tumor Proliferation Rate (T/C): 83.01%
  Relative Tumor Volume (RTV): 10.64 ± 0.92
  Tumor Volume (d 1): 139.13 ± 12.26 mm3
  Tumor Volume (d 30): 1474.57 ± 104.54 mm3
  Tumor Weight: 1.44 ± 0.29 g
[3]; [12]
  Inhibition Rate (tumor growth inhibition rate): 44.21%
  Relative Tumor Proliferation Rate (T/C): 46.94%
  Relative Tumor Volume (RTV): 6.02 ± 1.07
  Tumor Volume (d 1): 138.94 ± 20.16 mm3
  Tumor Volume (d 30): 821.57 ± 90.36 mm3
  Tumor Weight: 0.97 ± 0.16 g
[3]; [13]
  Inhibition Rate (tumor growth inhibition rate): 58.37%
  Relative Tumor Proliferation Rate (T/C): 36.86%
  Relative Tumor Volume (RTV): 4.72 ± 1.57
  Tumor Volume (d 1): 136.94 ± 14.60 mm3
  Tumor Volume (d 30): 634.05 ± 180.18 mm3
  Tumor Weight: 0.73 ± 0.25 g
[3]; H1299, low, medium and high doses, P<0.05
  tumor volume and relative tumor volume compared with the model group: significantly lower
[3]; mouse, in vivo
  mouse weight compared with the model group: no significant changes
[4]; 13, 26 and 52 mg/kg i.g. 15 days
  growth of Lewis lung cancer in mice: significantly inhibit
[4]; dose 12.5 mg/kg
  Tumor Volume (mm3) (d 1): 104.18 ± 19.49 mm3
  Tumor Volume (mm3) (d30): 1304.48 ± 379.51 mm3
  Relative Tumor Proliferation Rate (T/C): 80.51
  Relative Tumor Volume (RTV): 12.89 ± 4.69
[4]; dose 13 mg/kg
  Inhibition Rate (%): 38.67%
  Tumor Weight: 0.98 ± 0.37 g
[4]; dose 25 mg/kg
  Tumor Volume (mm3) (d 1): 103.63 ± 19.46 mm3
  Tumor Volume (mm3) (d30): 1119.26 ± 338.67 mm3
  Relative Tumor Proliferation Rate (T/C): 68.97
  Relative Tumor Volume (RTV): 11.04 ± 4.07
[4]; dose 26 mg/kg
  Inhibition Rate (%): 44.26%
  Tumor Weight: 0.89 ± 0.18 g
[4]; dose 50 mg/kg
  Tumor Volume (mm3) (d 1): 103.38 ± 18.03 mm3
  Tumor Volume (mm3) (d30): 798.42 ± 189.19 mm3
  Relative Tumor Proliferation Rate (T/C): 48.76
  Relative Tumor Volume (RTV): 7.81 ± 1.76
[4]; dose 52 mg/kg
  Inhibition Rate (%): 56.34%
  Tumor Weight: 0.70 ± 0.21 g
[4]; 13 mg/kg
  Body Weight (g) (d1): 20.33 ± 0.64 g
  Body Weight (g) (d 15): 22.17 ± 1.74 g
[4]; 26 mg/kg
  Body Weight (g) (d1): 19.62 ± 1.43 g
  Body Weight (g) (d 15): 22.38 ± 0.96 g
[4]; 52 mg/kg
  Body Weight (g) (d1): 20.05 ± 0.67 g
  Body Weight (g) (d 15): 22.75 ± 0.95 g
